# Data as given in publication PMC4284807, “Activation of RidA chaperone function by N-chlorination” (Nature Communications, 2014).
# B1: E. coli RidA, untreated (natural protein, UniProt P0AF93 1-128, looked up)
# chain: MSKTIATENAPAAIGPYVQGVDLGNMIITSGQIPVNPKTGEVPADVAAQARQSLDNVKAIVEAAGLKVGDIVKTTVFVKDLNDFATVNATYEAFFTEHNATFPARSCVEVARLPKDVKIEIEAIAVRR
# notes: RidA of Escherichia coli, member of the YjgF/YER057c/UK114 family; mass of the unmodified full-length protein printed as 13,480 Da; The printed mass of 13,480 Da may mean that the first methionine is missing (surmise); also called RidA-UT; untreated RidA
# B2: HOCl-treated RidA (RidA_(HOCl)) (natural protein, E. coli, UniProt P0AF93 1-128, looked up)
# chain: B1 chain
# modifications: N-chlorinated: up to seven chlorine atoms added (positions not mapped); up to five oxygen atoms added to methionine and cysteine residues
# notes: RidA of Escherichia coli, treated with HOCl; The chlorinated residues are not identified; the authors suspect lysine, arginine and the N-terminus; also called N-chlorinated RidA; source: HOCl removed with Micro Bio-Spin columns
# Legend:
# [1] = biological target: T1, RidA (untreated) (Escherichia coli, UniProt P0AF93); assay: fluorescence titration of dye with protein; format: binding; settings: protein varied 1-200 μM, 0.2 μM dye, 40 mM HEPES-KOH pH 7.4, emission 613 nm, hydrophobicity probe
# T1 construct: full-length recombinant RidA, 13,480 Da (fits loss of initiator Met), trimer; untreated
# T1 sequence (P0AF93 2-128): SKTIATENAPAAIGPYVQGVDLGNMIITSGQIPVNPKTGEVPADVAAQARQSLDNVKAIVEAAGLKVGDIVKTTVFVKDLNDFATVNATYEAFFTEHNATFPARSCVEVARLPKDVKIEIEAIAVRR
# [2] = biological target: T2, IlvA (Escherichia coli, UniProt P04968); assay: alpha-ketobutyrate formation at […] nm; format: biochemical; settings: 10 mM threonine, 0.9 μM IlvA, MES/HEPES/TAPS pH 7.5, 20 °C; accelerated by untreated RidA
# T2 sequence (P04968 1-514): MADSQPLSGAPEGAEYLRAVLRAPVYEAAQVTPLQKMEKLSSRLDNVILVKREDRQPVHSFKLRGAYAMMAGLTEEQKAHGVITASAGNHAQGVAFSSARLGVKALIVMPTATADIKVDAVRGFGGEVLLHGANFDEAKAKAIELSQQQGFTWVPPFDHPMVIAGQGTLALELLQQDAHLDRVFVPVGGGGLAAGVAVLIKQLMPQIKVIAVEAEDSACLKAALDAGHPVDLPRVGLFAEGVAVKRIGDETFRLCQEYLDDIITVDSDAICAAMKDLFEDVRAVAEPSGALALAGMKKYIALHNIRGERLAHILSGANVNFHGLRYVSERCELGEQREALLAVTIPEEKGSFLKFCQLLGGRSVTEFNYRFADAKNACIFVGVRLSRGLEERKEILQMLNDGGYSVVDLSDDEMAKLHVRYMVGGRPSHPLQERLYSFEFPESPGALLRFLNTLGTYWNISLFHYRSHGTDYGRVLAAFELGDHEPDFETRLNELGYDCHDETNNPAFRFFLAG
# [3] = biological target: the molecule itself; assay: SEC; analytical gel filtration, Superdex 75 10/300 GL, flow rate 0.5 ml min^-1; untreated RidA or RidA treated with a 10-fold excess of HOCl for 5 min at 37 °C (HOCl removed)
molecule,measurement,setting,value
CCN(CC)c1ccc2nc3c4ccccc4c(=O)cc-3oc2c1 [Nile red],Kd,[1],121 µM
C[C@@H](O)[C@H](N)C(=O)O [threonine],alpha-ketobutyrate formation at 230 nm,[2],α-ketobutyrate generation from threonine catalysed by threonine deaminase IlvA
B1,stoichiometry N,[3],3
B2,binding result,[3],binds
